Results as given in paper PMC12686243, “Synthesis and preclinical evaluation of FAP-targeting radiotracers for PET and optical imaging” (EJNMMI Radiopharmacy and Chemistry, 2025).

Columns and labels:
[1] = system: hFAP-HT1080 and WT-HT1080 xenografts; assay: in vivo fluorescence imaging of xenograft-bearing mice; parameters: species or system nude mice
From the text: Female athymic NMRI-nude mice (Rj:NMRI-Foxn1nu, Janvier Labs, France or Charles River, Germany) between 8 and 20 weeks of age were used. Subsequently, the prepared cells (1.0–2.0 × 10^6 hFAP/WT-HT1080 per animal) were subcutaneously injected into the right and left thigh, respectively. Xenograft tissue for real-time binding experiments was derived from animals injected with both target-positive and negative cells, however only showing growth of one tumor entity. When approaching endpoints, mice were anesthetized and euthanized. The tumor was quickly removed, frozen in − 45 °C 2-methylbutane and stored in sealed tubes at − 80 °C.
Optical imaging was performed using a multimodal IVIS-CT (Perkin Elmer, USA). Compounds were injected [0.09 mg/kg (n = 1)/0.33 mg/kg (n = 3) for NODAGA-FAP647; 0.17 mg/kg (n = 3) for NODAGA-FAP800, diluted in 150 µL of sterile 0.9% NaCl solution] into the lateral tail vein, either directly or via catheter. Fluorescence imaging started ~ 2 min post injection for 2–3 h, with 1 min, 3–5 min and 10 min intervals, along with a white-light image. Additional scans were performed after 24 h and, if applicable, later. The fluorescence of the respective fluorophore was captured (NODAGA-FAP647: λEx/Em = 640/680 nm, NODAGA-FAP800: λEx/Em = 745/800 nm). Emitted fluorescence intensity was analyzed (Perkin Elmer, Living Image 4.7.4) in raw data images.

[2] = biological target: T1, hFAPα, recombinant protein (Homo sapiens, UniProt Q12884); assay: fluorometric enzyme inhibition assay for FAP; type: biochemical; conditions: Morrison equation for tight binding inhibitors; substrate Ala-Pro-AMC; mean ± SD
T1 construct: purchased
T1 sequence (Q12884 1-760): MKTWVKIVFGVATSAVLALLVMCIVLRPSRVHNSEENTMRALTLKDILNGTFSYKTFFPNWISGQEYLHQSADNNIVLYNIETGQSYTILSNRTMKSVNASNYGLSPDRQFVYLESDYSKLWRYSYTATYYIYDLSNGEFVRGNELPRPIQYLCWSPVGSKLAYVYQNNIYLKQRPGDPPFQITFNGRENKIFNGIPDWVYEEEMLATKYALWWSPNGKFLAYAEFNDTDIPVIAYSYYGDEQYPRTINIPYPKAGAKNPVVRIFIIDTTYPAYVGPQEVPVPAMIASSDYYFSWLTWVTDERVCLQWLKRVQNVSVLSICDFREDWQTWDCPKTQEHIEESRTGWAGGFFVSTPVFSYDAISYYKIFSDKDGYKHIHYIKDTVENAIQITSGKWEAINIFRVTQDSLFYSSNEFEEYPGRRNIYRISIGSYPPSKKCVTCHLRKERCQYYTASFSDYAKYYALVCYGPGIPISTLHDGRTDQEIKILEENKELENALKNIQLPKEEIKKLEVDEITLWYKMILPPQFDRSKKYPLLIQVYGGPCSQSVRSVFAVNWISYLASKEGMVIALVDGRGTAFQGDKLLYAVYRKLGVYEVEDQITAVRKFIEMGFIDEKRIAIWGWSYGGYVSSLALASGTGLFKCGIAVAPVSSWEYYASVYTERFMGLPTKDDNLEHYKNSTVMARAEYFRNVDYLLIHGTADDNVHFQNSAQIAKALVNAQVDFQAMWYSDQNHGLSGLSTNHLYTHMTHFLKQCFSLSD
Description: Affinity towards FAP was tested using a commercially available fluorometric assay. At the day of the experiment, all tested compounds were diluted in assay buffer (DPP assay buffer, BPS Bioscience, San Diego, CA, USA,) in a 1:1 dilution series, resulting in eleven concentrations, ranging from 2000 nM to 1.950 nM, equal to 200 nM to 0.195 nM per well. The substrate Ala-Pro-AMC (BPS Bioscience, concentration per well: 5 μM, Km = 244 μM (Edosada et al. [2006])) was pipetted along with the inhibitor into a 96-well plate. Subsequently, the enzyme (hFAPα, recombinant protein) was dissolved in assay buffer and added to the wells. The final concentration of DMSO per well was 0.2%. The 96-well plate was immediately loaded into a multimode plate reader (Biotek Cytation 5, Agilent, Santa Clara, CA, USA). The fluorescence intensity for each well was measured over a time course of 30 min with measurement intervals of 15 s, an excitation wavelength of 360 ± 20 nm and an emission wavelength of 450 ± 20 nm. Data (relative fluorescence units, RFU) over the total measurement time was analyzed by linear regression. The slope of the resulting graphs was analyzed over the inhibitor concentration. The enzyme inhibition constant Ki was calculated using the Morrison equation for tight binding inhibitors (Williams and Morrison [1979]). […]

[3] = biological target: T2, human recombinant dipeptidylpeptidase IV (Homo sapiens, UniProt P27487); assay: fluorometric enzyme inhibition assay for DPPIV; type: biochemical
T2 construct: purchased Cayman Chemical
T2 sequence (P27487 whole entry): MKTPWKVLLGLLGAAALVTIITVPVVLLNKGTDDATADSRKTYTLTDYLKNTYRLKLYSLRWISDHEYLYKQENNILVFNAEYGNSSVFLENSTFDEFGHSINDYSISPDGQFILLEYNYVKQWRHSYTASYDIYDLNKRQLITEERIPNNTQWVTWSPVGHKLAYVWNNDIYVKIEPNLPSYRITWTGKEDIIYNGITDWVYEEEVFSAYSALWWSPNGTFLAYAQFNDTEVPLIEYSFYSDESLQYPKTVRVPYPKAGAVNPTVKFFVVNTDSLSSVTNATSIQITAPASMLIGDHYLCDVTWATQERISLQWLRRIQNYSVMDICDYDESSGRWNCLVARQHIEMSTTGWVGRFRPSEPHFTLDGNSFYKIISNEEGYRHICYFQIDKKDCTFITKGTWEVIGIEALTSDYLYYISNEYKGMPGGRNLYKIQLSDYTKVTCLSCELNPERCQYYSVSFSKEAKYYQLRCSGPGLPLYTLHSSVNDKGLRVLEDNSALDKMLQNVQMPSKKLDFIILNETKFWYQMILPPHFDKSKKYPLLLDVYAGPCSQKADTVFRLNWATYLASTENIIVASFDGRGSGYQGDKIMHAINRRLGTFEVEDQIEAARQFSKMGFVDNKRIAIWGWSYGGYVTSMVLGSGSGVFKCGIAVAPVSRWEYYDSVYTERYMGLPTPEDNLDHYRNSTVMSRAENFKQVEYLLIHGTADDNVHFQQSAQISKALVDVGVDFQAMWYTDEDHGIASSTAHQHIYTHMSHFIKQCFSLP
Description: The affinity towards DPPIV was determined using a commercially available inhibitor screening assay kit (Cayman Chemical, USA). The assay was performed according to the manufacturer’s instructions, and the data was analyzed as described above.

WT-HT1080 cells = assay: fluorescence microscopy of cellular binding and uptake; type: cell-based, human; conditions: 1 µM, 37 °C, up to 4 h
Description: WT/hFAP-HT1080 cells were seeded in an 18-chamber slide with 10,000 cells/well and cultured overnight. The medium was discarded and replaced by medium containing 1 µM of NODAGA-FAP647. The cells were then further incubated at 37 °C and 5% CO2. The binding of the ligand was stopped at the indicated time points by discarding the media and washing the cells twice with ice-cold PBS. The cells were then quickly fixed with 4% PFA/2.5% saccharose in PBS at 20 °C for 20 min. Following the fixation, cells were incubated with a 1:200 dilution of WGA-CF488A (Biotium #29022–1) in PBS to stain the cell membranes. Finally, the cell nuclei were stained with Hoechst33258 (Sigma #94403) diluted 5 µg/ml in PBS for 30 min at 20 °C. Cells were visualized with the Fluoview 1000 confocal laser scanning microscope (Olympus) using a 100 × oil immersion objective. Three representative images were captured for each well.

CN(CCCN1CCN(C(=O)[C@H](CCCCNC(=O)CC[C@H](C(=O)O)N2CCN(CC(=O)O)CCN(CC(=O)O)CC2)NC(=O)CCOCCOCCOCCOCCNC(=O)CCCCCC2(C)C(/C=C/C=C/C=C3/N(CCCS(=O)(=O)O)c4ccc(S(=O)(=O)O)cc4C3(C)C)=[N+](CCCS(=O)(=O)O)c3ccc(S(=O)(=O)[O-])cc32)CC1)c1ccc2nccc(C(=O)NCC(=O)N3CC(F)(F)C[C@H]3C#N)c2c1 (stereo partly drawn) [NODAGA-FAP647]
ratio hFAP-HT1080/muscle fluorescence ([1]; 120 min post injection): 3.5
ratio hFAP/WT-HT1080 tumor fluorescence ([1]; 120 min post injection): 2.5
fluorescence in hFAP-HT1080 tumor higher than in WT-HT1080 tumor or muscle ([1]; 24 h post injection): roughly 60%
reduction of fluorescence signal in hFAP-HT1080 tumor ([1]; after 24 h post injection): 59%
WT-HT1080 to muscle ratio ([1]; over the imaging period): close to one
time to plateau of fluorescence in hFAP-HT1080 tumor ([1]; post injection): ~ 10 min
Ki [2]: 0.237 ± 0.064 nM
IC50 [3]: > 10000 nM
binding or uptake in WT-HT1080 cells (WT-HT1080 cells): did not show any binding or uptake
